Assays:
Assay type in all cases: in vivo
[1] = test system: Amaranthus viridis (AMAVI); assay: B2 drilled field trial Brazil, post-emergence, AMAVI; conditions: 100=total damage, 0=no damage; for AMAVI 7DAA Observed: 7 days after application; for AMAVI 30 DAA Observed: 30 days after application
Procedure: (§1) Seeds of a variety of test species were used in drilled field trials to look at the control of important weed species present in corn crops as well as the effect on soybean (a volunteer crop in corn). Trials were carried out in Brazil in the summer season.
(§2) Plot size was 10-12 m^2, and two replicates were carried out per treatment. Plants were treated post-emergence at the 4 leaf stage. Fungicides and insecticides were used as necessary for plant health. The test was evaluated at 7 and 30 days after application (Amaranthus viridis (AMAVI), Bidens pilosa (BIDPI), Euphorbia heterophylla (EPPHL)) and 9 and 37 days after application (Brachiaria plantaginea (BRAPL) and soybean (Glycine max GLXMA) with 100=total damage to plant and 0=no damage to plant.
(§3) Expected results were calculated using the Colby Formula.

[2] = test system: Bidens pilosa (BIDPI); assay: B2 drilled field trial Brazil, post-emergence, BIDPI; conditions: 100=total damage, 0=no damage; for BIDPI 7DAA Observed: 7 days after application; for BIDPI 30 DAA Observed: 30 days after application
Procedure: as §1, §2, §3

[3] = test system: Euphorbia heterophylla (EPPHL); assay: B2 drilled field trial Brazil, post-emergence, EPPHL; conditions: 100=total damage, 0=no damage; for EPPHL 7DAA Observed: 7 days after application; for EPPHL 30 DAA Observed: 30 days after application
Procedure: as §1, §2, §3

[4] = test system: Brachiaria plantaginea (BRAPL); assay: B2 drilled field trial Brazil, post-emergence, BRAPL; conditions: 100=total damage, 0=no damage; for BRAPL 9DAA Observed: 9 days after application; for BRAPL 37 DAA Observed: 37 days after application
Procedure: as §1, §2, §3

[5] = test system: soybean (Glycine max GLXMA); assay: B2 drilled field trial Brazil, post-emergence, soybean; conditions: 100=total damage, 0=no damage; for GLXMA 9DAA Observed: 9 days after application; for GLXMA 37 DAA Observed: 37 days after application
Procedure: as §1, §2, §3

[6] = test system: Amaranthus retroflexus (AMARE); assay: B3 drilled field trial Brazil, post-emergence, AMARE; conditions: 28 days after application, 100=total damage, 0=no damage
Procedure: (§4) Seeds of a variety of test species were used in drilled field trials to look at the control of important weed species present in corn crops as well as the effect on soybean (a volunteer crop in corn). Trials were carried out in Brazil in the summer season and the second season.
(§5) Plot size was 10-15 m^2, and two replicates were carried out per treatment. Plants were treated post-emergence between the 2 and 4 leaf stage. Species tested were Amaranthus retroflexus (AMARE), Ipomoea grandifolia (IAQGR), Digitaria horizontalis (DIGHO), Bidens pilosa (BIDPI), Eleusine indica (ELEIN), Brachiaria decumbens (BRADC), Centrus echinatus (CCHEC), Euphorbia heterophylla (EPPHL), Brachiaria plantaginea (BRAPL) and Glycine max (GLXMA; soybean). Fungicides and insecticides were used as necessary for plant health. The test was evaluated at 28 days after application with 100=total damage to plant and 0=no damage to plant.
as §3

[7] = test system: Ipomoea grandifolia (IAQGR); assay: B3 drilled field trial Brazil, post-emergence, IAQGR; conditions: 28 days after application
Procedure: as §4, §5, §3

[8] = test system: Digitaria horizontalis (DIGHO); assay: B3 drilled field trial Brazil, post-emergence, DIGHO; conditions: 28 days after application
Procedure: as §4, §5, §3

[9] = test system: Bidens pilosa (BIDPI); assay: B3 drilled field trial Brazil, post-emergence, BIDPI; conditions: 28 days after application
Procedure: as §4, §5, §3

[10] = test system: Eleusine indica (ELEIN); assay: B3 drilled field trial Brazil, post-emergence, ELEIN; conditions: 28 days after application
Procedure: as §4, §5, §3

[11] = test system: Brachiaria decumbens (BRADC); assay: B3 drilled field trial Brazil, post-emergence, BRADC; conditions: 28 days after application
Procedure: as §4, §5, §3

[12] = test system: Centrus echinatus (CCHEC); assay: B3 drilled field trial Brazil, post-emergence, CCHEC; conditions: 28 days after application
Procedure: as §4, §5, §3

[13] = test system: Euphorbia heterophylla (EPPHL); assay: B3 drilled field trial Brazil, post-emergence, EPPHL; conditions: Summer season, 28 days after application
Procedure: as §4, §5, §3

[14] = test system: Brachiaria plantaginea (BRAPL); assay: B3 drilled field trial Brazil, post-emergence, BRAPL; conditions: Summer season, 28 days after application
Procedure: as §4, §5, §3

[15] = test system: Glycine max (GLXMA; soybean); assay: B3 drilled field trial Brazil, post-emergence, soybean; conditions: 28 days after application
Procedure: as §4, §5, §3

SMILES: CS(=O)(=O)c1ccc(C(=O)C2C(=O)CCCC2=O)c([N+](=O)[O-])c1 [Mesotrione, reference compound]
- AMAVI 7DAA Observed ([1]; 75 g ai/ha): 25
- AMAVI 30 DAA Observed ([1]; 75 g ai/ha): 30
- AMAVI 7DAA Observed ([1]; 125 g ai/ha): 65
- AMAVI 30 DAA Observed ([1]; 125 g ai/ha): 50
- BIDPI 7DAA Observed ([2]; 75 g ai/ha): 28
- BIDPI 30 DAA Observed ([2]; 75 g ai/ha): 28
- BIDPI 7DAA Observed ([2]; 125 g ai/ha): 40
- BIDPI 30 DAA Observed ([2]; 125 g ai/ha): 40
- EPPHL 7DAA Observed ([3]; 75 g ai/ha): 30
- EPPHL 30 DAA Observed ([3]; 75 g ai/ha): 20
- EPPHL 7DAA Observed ([3]; 125 g ai/ha): 40
- EPPHL 30 DAA Observed ([3]; 125 g ai/ha): 35
- BRAPL 9DAA Observed ([4]; 75 g ai/ha): 53
- BRAPL 37 DAA Observed ([4]; 75 g ai/ha): 7
- BRAPL 9DAA Observed ([4]; 125 g ai/ha): 65
- BRAPL 37 DAA Observed ([4]; 125 g ai/ha): 0
- GLXMA 9DAA Observed ([5]; 75 g ai/ha): 45
- GLXMA 37 DAA Observed ([5]; 75 g ai/ha): 65
- GLXMA 9DAA Observed ([5]; 125 g ai/ha): 55
- GLXMA 37 DAA Observed ([5]; 125 g ai/ha): 88
- AMARE Second season Observed ([6]; 75 g ai/ha): 40
- AMARE Summer season Observed ([6]; 75 g ai/ha): 73
- AMARE Second season Observed ([6]; 125 g ai/ha): 54
- AMARE Summer season Observed ([6]; 125 g ai/ha): 85
- Observed damage (100=total damage to plant, 0=no damage) ([7]; Second season, 75 g ai/ha): 79
- Observed damage (100=total damage to plant, 0=no damage) ([7]; Second season, 125 g ai/ha): 87
- Observed damage (100=total damage to plant, 0=no damage) ([7]; Summer season, 75 g ai/ha): 63
- Observed damage (100=total damage to plant, 0=no damage) ([7]; Summer season, 125 g ai/ha): 96
- Observed damage (100=total damage to plant, 0=no damage) ([8]; Second season, 75 g ai/ha): 40
- Observed damage (100=total damage to plant, 0=no damage) ([8]; Second season, 125 g ai/ha): 70
- Observed damage (100=total damage to plant, 0=no damage) ([8]; Summer season, 75 g ai/ha): 50
- Observed damage (100=total damage to plant, 0=no damage) ([8]; Summer season, 125 g ai/ha): 72
- Observed damage (100=total damage to plant, 0=no damage) ([9]; Second season, 75 g ai/ha): 68
- Observed damage (100=total damage to plant, 0=no damage) ([9]; Second season, 125 g ai/ha): 70
- Observed damage (100=total damage to plant, 0=no damage) ([9]; Summer season, 75 g ai/ha): 53
- Observed damage (100=total damage to plant, 0=no damage) ([9]; Summer season, 125 g ai/ha): 74
- Observed damage (100=total damage to plant, 0=no damage) ([10]; Second season, 75 g ai/ha): 20
- Observed damage (100=total damage to plant, 0=no damage) ([10]; Second season, 125 g ai/ha): 50
- Observed damage (100=total damage to plant, 0=no damage) ([10]; Summer season, 75 g ai/ha): 53
- Observed damage (100=total damage to plant, 0=no damage) ([10]; Summer season, 125 g ai/ha): 58
- Observed damage (100=total damage to plant, 0=no damage) ([11]; Second season, 75 g ai/ha): 10
- Observed damage (100=total damage to plant, 0=no damage) ([11]; Second season, 125 g ai/ha): 13
- Observed damage (100=total damage to plant, 0=no damage) ([11]; Summer season, 75 g ai/ha): 48
- Observed damage (100=total damage to plant, 0=no damage) ([11]; Summer season, 125 g ai/ha): 50
- Observed damage (100=total damage to plant, 0=no damage) ([12]; Second season, 75 g ai/ha): 0
- Observed damage (100=total damage to plant, 0=no damage) ([12]; Second season, 125 g ai/ha): 0
- Observed damage (100=total damage to plant, 0=no damage) ([12]; Summer season, 75 g ai/ha): 0
- Observed damage (100=total damage to plant, 0=no damage) ([12]; Summer season, 125 g ai/ha): 0
- Observed damage (100=total damage to plant, 0=no damage) ([13]; 75 g ai/ha): 40
- Observed damage (100=total damage to plant, 0=no damage) ([13]; 125 g ai/ha): 58
- Observed damage (100=total damage to plant, 0=no damage) ([14]; 75 g ai/ha): 15
- Observed damage (100=total damage to plant, 0=no damage) ([14]; 125 g ai/ha): 28
- Observed damage (100=total damage to plant, 0=no damage) ([15]; Second season, 75 g ai/ha): 83
- Observed damage (100=total damage to plant, 0=no damage) ([15]; Second season, 125 g ai/ha): 89
- Observed damage (100=total damage to plant, 0=no damage) ([15]; Summer season, 75 g ai/ha): 69
- Observed damage (100=total damage to plant, 0=no damage) ([15]; Summer season, 125 g ai/ha): 92
